The text below walks through data of patent publication US5428158A, “2-substituted indane-2-mercaptoacetylamide derivatives useful as inhibitors of enkephalinase and ace” (Merrell Dow Pharmaceuticals Inc., priority 1993, dated 1995).

One experiment concerns the target ACE (Homo sapiens, UniProt P12821). As to the kind of experiment: ACE inhibition, spectrophotometric substrate. It is filed as biochemical. The source says: The enzymatic activity of ACE is monitored using the spectrophotometric substrate described by Holmquist et al. [Anal. Biochem. 95, 540-548 (1979)]and the buffer system described by Ryan [Methods of Enzymatic Analysis, 3rd ed., H. U. Bergmeyer, editor; vol. V, Verlag Chemie, Weinheim, 1983, pp. 20-34].
(§1) The results of the analysis of enzymatic activity as described in Table 1 indicate that the compounds of the present invention are inhibitors of enkephalinase as well as inhibitors of ACE.

Another experiment deals with T1, Enkephalinase (Rattus norvegicus, UniProt P07861).
T1 construct: Enkephalinase is partially purified from rat kidney; from tissue; host or cells: rat kidney (microvilli fraction; Triton X-100 extract or proteolytic solubilisation, then Mono Q FPLC)
T1 sequence (P07861 1-750): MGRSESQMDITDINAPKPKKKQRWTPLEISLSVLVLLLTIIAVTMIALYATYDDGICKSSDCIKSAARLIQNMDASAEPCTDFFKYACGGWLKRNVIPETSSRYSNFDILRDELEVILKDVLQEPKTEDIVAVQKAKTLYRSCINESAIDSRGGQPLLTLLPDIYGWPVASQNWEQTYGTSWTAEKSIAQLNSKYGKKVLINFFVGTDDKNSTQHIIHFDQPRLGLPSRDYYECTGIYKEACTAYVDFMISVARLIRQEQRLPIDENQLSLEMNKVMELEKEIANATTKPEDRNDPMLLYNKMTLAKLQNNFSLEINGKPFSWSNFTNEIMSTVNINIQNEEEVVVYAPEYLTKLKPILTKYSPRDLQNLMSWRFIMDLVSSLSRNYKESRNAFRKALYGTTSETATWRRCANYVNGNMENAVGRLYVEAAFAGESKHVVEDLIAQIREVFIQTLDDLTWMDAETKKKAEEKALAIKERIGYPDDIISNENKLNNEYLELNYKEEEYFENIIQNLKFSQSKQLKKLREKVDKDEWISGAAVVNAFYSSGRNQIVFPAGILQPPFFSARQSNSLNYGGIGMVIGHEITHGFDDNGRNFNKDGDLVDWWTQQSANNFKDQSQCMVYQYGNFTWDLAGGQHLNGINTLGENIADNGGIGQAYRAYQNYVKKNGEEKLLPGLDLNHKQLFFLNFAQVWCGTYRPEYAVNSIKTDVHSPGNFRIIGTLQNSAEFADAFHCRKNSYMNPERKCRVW
The experiment can be described thus: Enkephalinase inhibition, fluorometric, substrate dansyl-D-AlaGly(p-nitro)PheGly. The experiment is classed as biochemical. Conditions: 50 mM HEPES, pH 7.4, 25° C., 12 μM substrate; read-out: ENK, Ki.
Source text: Enkephalinase is partially purified from rat kidney. The enzyme is extracted from the microvilli fraction by using Triton X-100 according to the method of Malfroy and Schwartz [J. Biol. Chem. 259, 14365-14370 (1984)] or by using a proteolytic treatment according to the method of Almenoff and Orlowski [Biochem. 22 590-599 (1983)]. The enzyme is further purified by anio exchange chromatography (Mono Q™ column, Pharmacia) using a Pharmacia FPLC system. The enzyme activity may be measured by the fluorometric methods of Florentin et al. [Anal. Biochem. 141, 62-69 (1984 ) ] or of Almenoff and Orlowski [J. Neurochemistry 42,151-157 (1984)]. […] The substrate (and inhibitor) is added from a concentrated stock solution in DMSO (up to 0.1 mL DMSO final volume). The enzyme in a small volume (approximately 0.1 μg of FPLC purified protein) is added to initiate the reaction and the rate of fluorecense increase is recorded continuously using a fluorometer (excitation at 339 nm, emission at 562 nm).
as §1

The test system of another experiment is myointimal proliferation. As to conditions: after vascular injury; Davis et al. 1992; cited from earlier work.

Sequence of ACE (P12821 30-1306, species assumed): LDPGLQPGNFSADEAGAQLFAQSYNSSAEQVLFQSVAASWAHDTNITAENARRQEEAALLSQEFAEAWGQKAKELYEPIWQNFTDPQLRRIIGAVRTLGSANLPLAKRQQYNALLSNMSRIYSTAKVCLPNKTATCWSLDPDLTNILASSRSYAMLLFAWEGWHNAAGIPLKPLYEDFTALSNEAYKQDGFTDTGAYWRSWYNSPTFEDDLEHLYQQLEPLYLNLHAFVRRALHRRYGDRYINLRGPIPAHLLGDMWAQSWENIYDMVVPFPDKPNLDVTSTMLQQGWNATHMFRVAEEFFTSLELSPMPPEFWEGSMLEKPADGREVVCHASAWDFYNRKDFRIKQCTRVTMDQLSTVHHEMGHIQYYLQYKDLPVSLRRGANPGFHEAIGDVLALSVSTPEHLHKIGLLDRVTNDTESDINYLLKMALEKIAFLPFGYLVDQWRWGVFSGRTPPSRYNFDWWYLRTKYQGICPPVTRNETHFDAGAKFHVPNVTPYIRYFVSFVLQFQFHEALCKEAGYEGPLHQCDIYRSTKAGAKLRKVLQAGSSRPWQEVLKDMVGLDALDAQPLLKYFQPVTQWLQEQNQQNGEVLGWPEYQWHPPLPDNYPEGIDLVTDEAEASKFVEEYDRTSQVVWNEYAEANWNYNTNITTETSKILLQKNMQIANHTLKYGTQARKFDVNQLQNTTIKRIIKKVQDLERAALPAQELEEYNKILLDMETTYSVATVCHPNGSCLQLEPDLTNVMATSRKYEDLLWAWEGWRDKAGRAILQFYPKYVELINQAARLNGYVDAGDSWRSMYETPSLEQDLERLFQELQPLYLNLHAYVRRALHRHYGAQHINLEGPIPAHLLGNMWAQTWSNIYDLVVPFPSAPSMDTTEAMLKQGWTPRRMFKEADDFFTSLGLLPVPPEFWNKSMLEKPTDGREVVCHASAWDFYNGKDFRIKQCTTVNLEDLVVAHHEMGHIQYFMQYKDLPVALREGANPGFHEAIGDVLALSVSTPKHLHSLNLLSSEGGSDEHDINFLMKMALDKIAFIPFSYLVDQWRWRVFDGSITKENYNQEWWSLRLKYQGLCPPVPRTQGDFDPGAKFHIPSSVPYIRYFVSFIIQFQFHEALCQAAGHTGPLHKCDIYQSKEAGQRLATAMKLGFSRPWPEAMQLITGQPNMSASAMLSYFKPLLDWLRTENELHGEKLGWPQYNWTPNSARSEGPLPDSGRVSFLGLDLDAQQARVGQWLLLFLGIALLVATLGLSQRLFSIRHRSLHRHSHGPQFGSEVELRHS

The term Ki denotes a measure of affinity in units of concentration, obtained from inhibition or displacement. For `O=C(O)[C@@H]1CCC[C@@H]2c3ccccc3C[C@H](NC(=O)C3(S)Cc4ccccc4C3)C(=O)N21` [102,708, [4S-[4α, 7α(R*), 12bβ]]-7-[(2-Thio-2-oxoindan)methylamino]-1,2,3,4,6,7,8,12b-octahydro-6-oxopyrido[2,1-a][2]benzazepine-4-carboxylic acid], the inhibition constant Ki at ACE was under 45 nM; on Enkephalinase it was under 0.2 nM.

As for `CCOC(=O)[C@H](CCSC)NC(=O)[C@@H](CSC(C)=O)Cc1ccccc1C` [SCH42495], the myointimal proliferation entry in the experiment with myointimal proliferation was “prevent myointimal proliferation after vascular injury”.

In the case of `CC(C)(S)C(=O)N[C@H]1Cc2ccccc2[C@H]2CCC[C@@H](C(=O)O)N2C1=O` [101,069, [4S-[4α, 7α(R*), 12bβ]]-7-[(2-Thio-1-oxo-2-methyl)-2-propylamino]-1,2,3,4,6,7,8,12b-octahydro-6-oxopyrido[2,1-a][2]benzazepine-4-carboxylic acid], the Ki at ACE is over 7 nM; at Enkephalinase it was 4 nM.

Regarding `O=C(O)[C@@H]1CCC[C@@H]2c3ccccc3C[C@H](NC(=O)C3(CCS)Cc4ccccc4C3)C(=O)N21` [100,273, [4S-[4α, 7α(R*), 12bβ]]-7-[(2-(2-mercaptoethyl)-2-oxoindan)methylamino]1,2,3,4,6,7,8,12b-octahydro-6-oxopyrido[2,1-a][2]benzazepine-4-carboxylic acid], the inhibitory constant (Ki) on ACE was over 250 nM; at Enkephalinase, 0.8 nM.

On to `O=C(O)[C@@H]1CCC[C@@H]2c3ccccc3C[C@H](NC(=O)C3(S)CCCC3)C(=O)N21` [102,769, [4S-[4α, 7α(R*), 12bβ]]-7-[(1-Thio-1-oxocyclopentane)methylamino]-1,2,3,4,6,7,8,12b-octahydro-6-oxopyrido[2,1-a][2]benzazepine-4-carboxylic acid], for which the results for the inhibition constant (Ki) on ACE and on Enkephalinase were under 7 nM and under 0.2 nM, respectively.

`O=C(O)[C@@H]1CCC[C@@H]2c3ccccc3C[C@H](NC(=O)C3(CS)Cc4ccccc4C3)C(=O)N21` [100,346, [4S-[4α, 7α(R*), 12bβ]]-7-[(2-Mercaptomethyl-2-oxoindan)methylamino]-1,2,3,4,6,7,8,12b-octahydro-6-oxopyrido[2,1-a][2]benzazepine-4-carboxylic acid]: the inhibition constant (Ki) at ACE is under 500 nM; at Enkephalinase it was under 0.2 nM.
